Experimental data reported in US20250188088A1, “COMPOUND AND USE THEREOF” (ONQUALITY PHARMACEUTICALS CHINA LTD., priority 2022, published 2025).
In brackets after ≈: the same amount, converted by molar mass. Read-outs that look alike come from different tables or passages of the source.

Key:
[1] = system: rash caused by small molecule EGFR inhibitors; assay: Treatment of rash caused by small molecule EGFR inhibitors, topical ointment, rat model; format: in vivo, SD rats
Method: An Experiment to Verify the Treatment of Rash Caused by Small Molecule EGFR Inhibitors with Topical Administration of Compounds of the Present Application on a Rat Animal Model After the SD rats were fed and adapted for one week (about 200 g), the rats were divided into 10 rats per group. The hair on the back of rats was gently removed with an electric razor one day before the experiment, and then an intragastric administration test was carried out. EGFR inhibitors were dissolved in a sterile aqueous solution, and diluted with PBS buffer; the amount of each gavage was not more than 2 mL, and the dosage was shown in Table 3. […] The experiments were divided into the administration group with the compound of the present application and the control group. During the treatment experiment, EGFR inhibitors were intragastrically administered continuously every day. After the gavage, the administration group applied the compound ointment of the present application on the back (about 3 cm*3 cm) of rats, and the control group applied blank matrix ointment on the back (about 3 cm*3 cm); after application, the rats were fixed with a fixed cyclinder for about 4 hours, and then the rats were released, with the residual drug at the application site wiped off with clean water, and put back into the cage. The frequency of intragastric administration of EGFR inhibitors is shown in Table 3, but the compounds of the present application and blank ointment are applied only once a day. […] Table 3 lists the animal experiment combinations of various small molecule EGFR inhibitors and the compound ointment of the present application, as well as the corresponding experiment results (wherein, the value in the control rate column=the number of rats whose rash is milder in the administration group than that in the control group/the total number of rats in the administration group×100%).

[2] = Log D measurement (n-octanol/PBS shake, LC-MS/MS); format: physicochemical; details: pH 7.4, read-out: LogD7.4 (Oct/buff)
Method: Two replicates of test compounds (DMSO stock solution 10 mM, 2 μL/well) and QCs (DMSO 10 mM, 2 μL/well) were transferred from the storage tube to a 96-well cluster tube. Add buffer-saturated n-octanol ([…]) and n-octanol-saturated PBS (149 μL/well) to each well; vortex mix the cluster tube for 1 minute, mix by shaking on a plate shaker at 880 rpm for one hour, and then centrifuge at 4000 rpm for 10 minutes. Remove the cover pad, accurately measure a certain amount of n-octanol layer samples (4 μL/well) into a 96-well plate containing n-octanol internal standard diluent (796 μL/well); accurately measure a certain amount of buffer salt layer samples (30 μL/well) into a 96-well plate containing buffer internal standard diluent (570 μL/well); the dilution factor of the sample can be adjusted according to different properties of the sample. Samples were analyzed using a triple quadrupole mass spectrometer. The processed sample solution was analyzed by the fast isocratic elution and small column retention method, the concentration correction was carried out by dilution factor and internal standard, and the ratio of the corrected peak area was used to calculate the final result (Log D/Log P value).

[3] = Thermodynamic solubility assay (PBS pH 6.5; isopropyl myristate); format: physicochemical; details: thermodynamic from solid
Method: Thermodynamic Solubility Assay
Weigh not less than 2 mg of the sample powder into a Whatman Mini-UniPrep vial. If it is required to test the thermodynamic solubility of samples in multiple buffers, a separate vial is needed for each test; add 450 μL of buffer to each Whatman Mini-UniPrep vial, respectively; after that, install the piston cap of Whatman Mini-UniPrep and press it above the liquid level, so that the filter is in contact with the buffer during shaking; shake the solubility sample by vortexing for 1 minute.
Inject 3 UV standard solutions from low to high concentrations into the HPLC, then inject the diluent and supernatant of the test compound, with two replicates of test sample; and integrate the UV peaks. Simulate a standard curve and calculate the thermodynamic solubility of the sample.

[4] = system: skin contact delayed-type hypersensitivity; assay: Skin contact delayed-type hypersensitivity (DNFB) response test, ear swelling, topical ointment; format: in vivo; details: topical to ears, DNFB DTH, Balb/c mice, compared to blank ointment
Outline: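 Balb/c mice sensitized with DNFB on the back on Days 0–1, then challenged on Day 5 with 0.2% DNFB on both ears. Ear thickness measured by micrometer 24–72 h after challenge. Compound ointment applied topically over Days −1–7 or Days 4–7; effect is the reduction in ear swelling versus blank ointment, with ≥20% deemed effective.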

logD [2]: 0.63 | solubility thermodynamic at 24 h ([3]; aqueous buffer, PBS buffer pH 6.5, about 25° C., read-out: Thermodynamic Solubility pH = 6.5): 4390 µg/mL (≈ 8.58 mM) | solubility thermodynamic at 24 h ([3]; oil or lipid, isopropyl myristate as vehicle, about 25° C., read-out: Thermodynamic Solubility in Isopropyl Myristate): 375 µg/mL (≈ 0.733 mM)
Structure (SMILES): C[C@@H]1CCN(C(=O)CC#N)C[C@@H]1N(C)c1ncnc2c1ccn2C(=O)N(C)CCOC(=O)C1CCCO1 (stereo partly shown) [Compound A7]
Control Rate ([1]; Afatinib 40 mg/kg once a day, 6 dosing modelling days, ointment 0.1 wt% once a day): 20% | Control Rate ([1]; Afatinib 40 mg/kg once a day, 6 dosing modelling days, ointment 3.0 wt% once a day): 60% | Control Rate ([1]; BPI-7711 60 mg/kg once a day, 6 dosing modelling days, ointment 3.0 wt% once a day): 70% | Control Rate ([1]; EAI045 80 mg/kg once a day, 8 dosing modelling days, ointment 1.0 wt% once a day): 50% | Control Rate ([1]; EAI045 80 mg/kg once a day, 8 dosing modelling days, ointment 5.0 wt% once a day): 80% | Control Rate ([1]; Larotinib 20 mg/kg once a day, 6 dosing modelling days, ointment 3.0 wt% once a day): 6% | Control Rate ([1]; Osimertinib 60 mg/kg twice a day, 7 dosing modelling days, ointment 3.0 wt% once a day): 10% | Control Rate ([1]; Osimertinib 60 mg/kg twice a day, 7 dosing modelling days, ointment 10.0 wt% once a day): 70% | Reduction Rate of Ear Swelling ([4]; ointment 0.05 wt%): 18% | Reduction Rate of Ear Swelling ([4]; ointment 0.1 wt%): 22% | Reduction Rate of Ear Swelling ([4]; ointment 1.0 wt%): 27% | Reduction Rate of Ear Swelling ([4]; ointment 5.0 wt%): 35% | Reduction Rate of Ear Swelling ([4]; ointment 10.0 wt%): 42%
